Tests used:
[1] = system: canonical human HSP70 isoforms; assay: FP binding of fluorescent peptides to HSP70 substrate binding domains; settings: FIG. 4A
U251 glioblastoma cells = assay: Cellular synergy, U251 growth rate (incucyte confluence); type: cell-based; settings: 10 μM of 8 (FIG. 12)
HSPA1A [2] = target: T1, HSPA1A (Homo sapiens, UniProt P0DMV8); assay: FP peptide binding assay, HSPA1A SBD; design: His6 (N, cleaved yes); made in house; host or cells: E. coli (Codon plus); settings: 1 μM HSP70 SBD, 10 nM fluorescent peptide, read-out: A1A IC50
Target sequence in this assay (P0DMV8 394-509 limits assumed): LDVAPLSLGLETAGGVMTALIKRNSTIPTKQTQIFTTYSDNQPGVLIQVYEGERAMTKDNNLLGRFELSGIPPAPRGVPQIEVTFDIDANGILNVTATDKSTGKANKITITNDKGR

cancer cell lines = assay: ZIP synergy with CB5083, growth inhibition; type: cell-based; settings: combination of CB5083 and 8 (FIG. 9A)
HSPA9 = target: T2, HSPA9 (Homo sapiens, UniProt P38646); assay: FP peptide binding assay, HSPA9 SBD; settings: 1 μM HSP70 SBD, 10 nM fluorescent peptide, read-out: A9 IC50
T2 construct: His6 (N, cleaved yes); made in house; host or cells: E. coli (Codon plus)
T2 sequence (P38646 442-679 limits assumed): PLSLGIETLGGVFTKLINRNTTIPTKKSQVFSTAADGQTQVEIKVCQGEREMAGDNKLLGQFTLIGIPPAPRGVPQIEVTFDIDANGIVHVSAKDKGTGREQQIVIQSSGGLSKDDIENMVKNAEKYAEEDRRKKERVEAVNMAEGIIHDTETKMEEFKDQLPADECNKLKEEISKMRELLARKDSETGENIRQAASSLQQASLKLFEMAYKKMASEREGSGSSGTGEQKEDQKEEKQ

HSPA6 = target: T3, HSPA6 (Homo sapiens, UniProt P17066); assay: FP peptide binding assay, HSPA6 SBD; settings: 1 μM HSP70 SBD, 10 nM fluorescent peptide, read-out: A6 IC50
T3 construct: His6 (N, cleaved yes); made in house; host or cells: E. coli (Codon plus)
T3 sequence (P17066 396-511 limits assumed): as the sequence (P0DMV8 394-509 limits assumed) above, with A19T, K22Q, S25A, I34T, L46F, N94S, K100R counted along it

HSA = target: T4, HSA (Homo sapiens, UniProt P02768); assay: Serum binding assay (dansylamide and BD140 probes); type: in vitro ADME; settings: 50 μM compound, 20 μM HSA
T4 construct: Each sample contained 20 μM HSA in PBS at pH 7.4; from tissue; host or cells: human serum
T4 sequence (P02768 25-609): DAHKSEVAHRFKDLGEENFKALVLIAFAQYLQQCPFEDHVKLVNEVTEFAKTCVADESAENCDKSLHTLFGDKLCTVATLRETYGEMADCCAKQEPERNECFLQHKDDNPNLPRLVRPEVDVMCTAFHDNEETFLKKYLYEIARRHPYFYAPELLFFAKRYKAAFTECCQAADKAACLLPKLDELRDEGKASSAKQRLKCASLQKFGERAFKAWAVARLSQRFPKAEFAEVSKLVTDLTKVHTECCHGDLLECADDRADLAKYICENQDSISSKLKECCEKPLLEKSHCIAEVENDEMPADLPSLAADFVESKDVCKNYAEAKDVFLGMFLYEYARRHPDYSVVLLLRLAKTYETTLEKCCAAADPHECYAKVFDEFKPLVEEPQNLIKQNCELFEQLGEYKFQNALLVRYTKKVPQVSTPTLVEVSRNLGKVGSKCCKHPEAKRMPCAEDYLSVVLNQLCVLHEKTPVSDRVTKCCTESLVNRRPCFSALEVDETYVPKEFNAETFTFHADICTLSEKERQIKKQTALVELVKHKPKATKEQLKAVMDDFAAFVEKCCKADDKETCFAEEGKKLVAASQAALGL

HSPA8 [3] = target: T5, HSPA8 (Homo sapiens, UniProt P11142); assay: FP peptide binding assay, HSPA8 SBD; design: His6 (N, cleaved yes); made in house; host or cells: E. coli (Codon plus); settings: 1 μM HSP70 SBD, 10 nM fluorescent peptide, read-out: A8 IC50
Target sequence in this assay (P11142 394-509 limits assumed): as the sequence (P0DMV8 394-509 limits assumed) above, with A4T, L10I, A19V, S25T, I34T, R65K, S69T, T96S, T98V, A105E counted along it

60 cancer cell lines = assay: NCI-60 human tumor cell line screen; type: cell-based; settings: fixed concentration of 10 μM (FIG. 8)
HSPA2 = target: T6, HSPA2 (Homo sapiens, UniProt P54652); assay: FP peptide binding assay, HSPA2 SBD; settings: 1 μM HSP70 SBD, 10 nM fluorescent peptide, read-out: A2 IC50
T6 construct: His6 (N, cleaved yes); made in house; host or cells: E. coli (Codon plus)
T6 sequence (P54652 397-512 limits assumed): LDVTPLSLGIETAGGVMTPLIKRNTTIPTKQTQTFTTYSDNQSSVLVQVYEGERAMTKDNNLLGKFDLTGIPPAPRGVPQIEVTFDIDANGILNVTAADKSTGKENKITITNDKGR

HSPA8 [4] = target: T5, HSPA8; settings: read-out: NRLLLTG affinity for HSPA8; reported in the literature; cited from earlier work
Target sequence in this assay (P11142 whole entry): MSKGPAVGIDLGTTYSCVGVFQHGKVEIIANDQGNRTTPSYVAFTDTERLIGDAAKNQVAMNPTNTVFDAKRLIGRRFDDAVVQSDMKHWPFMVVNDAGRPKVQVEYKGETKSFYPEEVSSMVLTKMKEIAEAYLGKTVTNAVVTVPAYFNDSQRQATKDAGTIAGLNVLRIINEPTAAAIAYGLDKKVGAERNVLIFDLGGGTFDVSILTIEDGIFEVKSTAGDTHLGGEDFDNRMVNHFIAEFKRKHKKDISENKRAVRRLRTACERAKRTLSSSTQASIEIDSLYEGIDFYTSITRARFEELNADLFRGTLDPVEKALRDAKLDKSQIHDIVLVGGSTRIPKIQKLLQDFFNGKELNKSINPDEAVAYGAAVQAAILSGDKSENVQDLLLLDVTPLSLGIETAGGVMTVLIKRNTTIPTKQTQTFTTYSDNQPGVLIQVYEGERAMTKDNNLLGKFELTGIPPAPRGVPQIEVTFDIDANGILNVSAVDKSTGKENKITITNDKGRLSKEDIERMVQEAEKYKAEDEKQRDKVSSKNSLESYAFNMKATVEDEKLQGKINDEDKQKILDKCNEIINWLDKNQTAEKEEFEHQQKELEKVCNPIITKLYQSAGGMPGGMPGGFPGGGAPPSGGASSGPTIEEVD

HSPA1A [5] = target: T1, HSPA1A; settings: read-out: NRLLLTG affinity for HSPA1A; reported in the literature; cited from earlier work
Target sequence in this assay (P0DMV8 whole entry): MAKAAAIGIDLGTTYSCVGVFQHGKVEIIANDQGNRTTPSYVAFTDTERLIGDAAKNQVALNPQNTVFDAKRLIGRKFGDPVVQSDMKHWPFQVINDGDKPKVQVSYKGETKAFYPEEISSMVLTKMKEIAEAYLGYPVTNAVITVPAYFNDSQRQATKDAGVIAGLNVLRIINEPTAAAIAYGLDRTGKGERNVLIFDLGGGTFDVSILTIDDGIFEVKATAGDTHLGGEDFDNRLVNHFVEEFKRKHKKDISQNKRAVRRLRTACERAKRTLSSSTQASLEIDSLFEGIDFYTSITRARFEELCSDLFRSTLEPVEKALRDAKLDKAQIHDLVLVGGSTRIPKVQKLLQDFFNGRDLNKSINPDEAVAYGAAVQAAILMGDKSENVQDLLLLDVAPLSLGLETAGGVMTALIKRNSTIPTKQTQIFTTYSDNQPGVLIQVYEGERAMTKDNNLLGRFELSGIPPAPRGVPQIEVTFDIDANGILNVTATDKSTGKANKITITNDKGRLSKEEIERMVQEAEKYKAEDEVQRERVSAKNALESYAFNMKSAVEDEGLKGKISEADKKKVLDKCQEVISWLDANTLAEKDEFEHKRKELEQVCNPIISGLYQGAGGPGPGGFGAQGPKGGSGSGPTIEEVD

[6] = target: T7, HspA5 substrate binding domain (Homo sapiens, UniProt P11021); assay: 15N-HSQC NMR of HspA5 substrate binding domain; settings: FIG. 11
T7 construct: HspA5SBD); His6-Smt3 (N, cleaved yes); made in house; host or cells: E. coli BL21-Codon+
T7 sequence (P11021 418-635): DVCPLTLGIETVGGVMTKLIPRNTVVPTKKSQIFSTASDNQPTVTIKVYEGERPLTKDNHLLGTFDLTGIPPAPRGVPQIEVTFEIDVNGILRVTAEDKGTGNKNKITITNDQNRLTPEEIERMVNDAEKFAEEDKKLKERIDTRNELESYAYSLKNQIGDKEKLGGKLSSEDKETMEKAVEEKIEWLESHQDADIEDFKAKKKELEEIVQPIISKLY

HSPA5 = HSPA5 (Homo sapiens, UniProt P11021); assay: FP peptide binding assay, HSPA5 (HSPA5-NRLLLTG interaction); design: His6 (N, cleaved yes); made in house; host or cells: E. coli (Codon plus); settings: FP, 1 μM HSP70 SBD, 10 nM fluorescent peptide; read-out: A5 IC50
Sequence of HSPA5 (P11021 419-632): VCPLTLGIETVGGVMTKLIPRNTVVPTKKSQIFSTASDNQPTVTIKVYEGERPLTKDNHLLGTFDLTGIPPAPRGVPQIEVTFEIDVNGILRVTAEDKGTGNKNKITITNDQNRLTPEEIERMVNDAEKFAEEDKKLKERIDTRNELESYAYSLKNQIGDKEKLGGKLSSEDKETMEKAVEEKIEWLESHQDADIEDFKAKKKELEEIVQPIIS

[7] = Solubility (comparison in words); type: physicochemical

For “FITC-NR: Fluorescent peptide (FITC-NRLLLTG) used as FP probe”, the “binding of fluorescent peptide to HSP70 isoforms” value [1] was “only bound tightly to HSPA5 and HSPA9”.

With `CC(C)[C@H](NC(=O)c1cc2ccccc2[nH]1)C(=O)Nc1nccs1` [Compound 8] the “growth inhibition with ER stress inducers MG132, thapsigargin, and CB5082” value (U251 glioblastoma cells) was “inhibits growth of these cells in a synergistic manner”, the IC50 (HSPA1A [2]) was > 50 µM and the “ZIP synergy with p97 inhibitor CB5083” value (cancer cell lines) was “growth inhibition was observed when both compounds are present a concentration where neither showed activity independently”. The IC50 (HSPA9) was 4.3 µM, the IC50 (HSPA6) was > 50 µM and the “Serum Binding” value (HSA) was <10%. The IC50 (HSPA8 [3]) was 43.5 µM, the “growth inhibition in NCI-60 panel” value (60 cancer cell lines) was “did not indicate significant decrease in growth rates” and the IC50 (HSPA2) was 13.9 µM.

For NRLLLTG, the Kd (HSPA8 [4]) is listed as 10 µM and the Kd (HSPA1A [5]) is listed as 10 µM.

With `CC(=O)c1ccc2[nH]c(C(=O)N[C@H](C(=O)Nc3nccs3)C(C)C)cc2c1` [Compound 24, (S)-5-acetyl-N-(3-methyl-1-oxo-1-(thiazol-2-ylamino)butan-2-yl)-1H-indole-2-carboxamide] the “binding to HSPA5 SBD by HSQC” value [6] was “binds to HSPA5 in a manner that stabilizes its structure”, the IC50 (HSPA5) was 0.43 ± 0.09 µM and the “solubility (comparison)” value [7] was “much more soluble than compound 8”.

For “P1: fluorescent peptide FAM-ALLLSAPRR that binds human HSP70 isoforms [Compound P1]”, the “binding of fluorescent peptide to HSP70 isoforms” value [1] was “bound with high affinity to all isoforms except HSPA1L”.

For `CC(C)[C@H](NC(=O)c1cccs1)C(=O)O` [Compound 17, (thiophene-2-carbonyl)-L-valine], the IC50 (HSPA5) was > 50 µM.

Source: patent US20230091297A1, “INHIBITORS OF HSP70 PROTEINS” (ARIZONA BOARD OF REGENTS ON BEHALF OF THE UNIVERSITY OF …, priority 2020, published 2023)
